In patent US8906852B2 (MethylGene Inc., priority 2010, dated 2014):
Counter-ions that a name gives are not always drawn.

molecular target: T1, VEGFR/KDR (Homo sapiens, UniProt P35968); experiment: VEGFR/KDR kinase inhibition, DELFIA assay; assay type: biochemical; details: ATP 0.6 uM (2x Km), enzyme 5 nM
T1 construct: made in house; host or cells: Sf9 cells (Spodoptera frugiperda), baculovirus
How it was run: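 Enzyme (5 nM) pre-incubated 4 min on ice with inhibitor and Mg-ATP (0.6 uM, 2× Km), then reacted 10-30 min at 30° C on immobilized poly(Glu4,Tyr). EDTA-quenched phosphotyrosine detected with Europium-labeled antibody by time-resolved fluorescence; IC50 from concentration series.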

T1 sequence (P35968 806-1356): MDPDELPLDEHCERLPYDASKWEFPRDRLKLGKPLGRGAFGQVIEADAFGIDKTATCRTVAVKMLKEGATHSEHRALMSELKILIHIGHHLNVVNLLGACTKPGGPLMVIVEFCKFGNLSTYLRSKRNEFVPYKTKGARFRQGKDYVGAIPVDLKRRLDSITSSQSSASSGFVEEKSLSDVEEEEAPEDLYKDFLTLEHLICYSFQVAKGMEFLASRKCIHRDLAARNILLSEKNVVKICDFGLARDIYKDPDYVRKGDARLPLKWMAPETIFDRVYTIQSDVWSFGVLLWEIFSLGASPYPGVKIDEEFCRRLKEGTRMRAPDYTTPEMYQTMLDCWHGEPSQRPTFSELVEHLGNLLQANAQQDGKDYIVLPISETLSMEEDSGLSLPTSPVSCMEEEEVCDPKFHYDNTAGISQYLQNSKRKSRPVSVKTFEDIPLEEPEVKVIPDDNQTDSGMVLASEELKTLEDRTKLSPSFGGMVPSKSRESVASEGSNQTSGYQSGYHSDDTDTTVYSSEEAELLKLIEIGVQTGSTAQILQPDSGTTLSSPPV

Row | Compound | IC50
1 | O=C(Nc1ccc(Oc2ccnc3cc(C(=O)N4CCCC(C(=O)O)C4)sc23)c(F)c1)NC1CC1 (stereo not shown) [Compound 466, 1-(7-(4-(3-cyclopropylureido)-2-fluorophenoxy)thieno[3,2-b]pyridine-2-carbonyl)piperidine-3-carboxylic acid] | < 50 nM
2 | CC(C)(C)OC(=O)N1CCN(Cc2ccc(-c3cc4nccc(Oc5ccc(NC(=O)NC6CC6)cc5F)c4s3)nc2)CC1 [Compound 48, tert-butyl 4-((6-(7-(4-(3-cyclopropylureido)-2-fluorophenoxy)thieno[3,2-b]-pyridin-2-yl)pyridin-3-yl)methyl)piperazine-1-carboxylate] | < 50 nM
3 | CCNC(=O)N1CCN(C(=O)Cn2cc(-c3cc4nccc(Oc5ccc(NC(=O)NC6CC6)cc5F)c4s3)nn2)CC1 [Compound 394] | < 50 nM
4 | O=C(Nc1ccc(Oc2ccnc3cc(-c4ccc(C(=O)N5CCN(CCO)CC5)cn4)sc23)c(F)c1)NC1CC1 [Compound 581, 1-cyclopropyl-3-(3-fluoro-4-(2-(5-(4-(2-hydroxyethyl)piperazine-1-carbonyl)pyridin-2-yl)thieno[3,2-b]pyridin-7-yloxy)phenyl)urea] | < 50 nM
5 | O=C(Nc1ccc(Oc2ccnc3cc(-c4ccc(CN5CCN(C(=O)[C@@H](O)CO)CC5)cn4)sc23)c(F)c1)NC1CC1 [Compound 536] | < 50 nM
6 | CC(C)(C)C(=O)O[C@@H]1CCCN(C(=O)c2cc3nccc(Oc4ccc(NC(=O)NC5CC5)cc4F)c3s2)C1 [Compound 451] | ≥ 250 nM
7 | O=C(Nc1ccc(Oc2ccnc3cc(-c4ccc(CN5CC[C@H](O)C5)cn4)sc23)c(F)c1)NC1CC1 [Compound 52, (S)-1-cyclopropyl-3-(3-fluoro-4-(2-(5-((3-hydroxypyrrolidin-1-yl)methyl)pyridin-2-yl)thieno[3,2-b]-pyridin-7-yloxy)phenyl)urea] | < 50 nM
8 | O=C(Nc1ccc(Oc2ccnc3cc(-c4ccc(CN5CC6CNCC6C5)cn4)sc23)c(F)c1)NC1CC1 (stereo not shown) [Compound 311, 1-cyclopropyl-3-(3-fluoro-4-(2-(5-((hexahydropyrrolo[3,4-c]pyrrol-2(1H)-yl)methyl)pyridin-2-yl)thieno[3,2-b]pyridin-7-yloxy)phenyl)urea] | < 50 nM
9 | COCCN(Cc1ccc(-c2cc3nccc(Oc4ccc(NC(=O)NC5CC5)cc4F)c3s2)nc1)C(=O)N(C)C [Compound 4, N-[3-((6-(7-(4-(3-cyclopropylureido)-2-fluorophenoxy)thieno[3,2-b]pyridin-2-yl)pyridin-3-yl)methyl)]-N-(1,1-dimethyl)-N-[3-(2-methoxyethyl)]urea] | < 50 nM
10 | CNC(=O)N1CCN(Cc2ccc(-c3cc4nccc(Oc5ccc(NC(=O)NC6CC6)cc5F)c4s3)nc2)CC1 [Compound 552] | < 50 nM
11 | CCNC(=O)N(CCOC)CCn1cnc(-c2cc3nccc(Oc4ccc(NC(=O)NC5CC5)cc4F)c3s2)c1 [Compound 256, N-(2-(4-(7-(4-(3-cyclopropylureido)-2-fluorophenoxy)thieno[3,2-b]-pyridin-2-yl)-1H-imidazol-1-yl)ethyl)-N-(1-ethyl)-N-[3-(2-methoxyethyl)]urea] | < 50 nM
12 | Cn1c(C(=O)NCCCN2CCOCC2)cnc1-c1cc2nccc(Oc3ccc(NC(=O)NC4CC4)cc3F)c2s1 [Compound 224] | < 50 nM
13 | C=CC(=O)N1CCN(Cc2ccc(-c3cc4nccc(Oc5ccc(NC(=O)NC6CC6)cc5F)c4s3)nc2)CC1(C)C [Compound 499, 1-(4-(2-(5-((4-acryloyl-3,3-dimethylpiperazin-1-yl)methyl)pyridin-2-yl)thieno[3,2-b]pyridin-7-yloxy)-3-fluorophenyl)-3-cyclopropylurea] | < 50 nM
14 | Cn1c(CN2CCOCC2)cnc1-c1cc2nccc(Oc3ccc(NC(=O)NC4CC4)cc3F)c2s1 [Compound 298] | < 50 nM
15 | CC(C)(C)C(=O)O[C@@H]1CCN(C(=O)c2cc3nccc(Oc4ccc(NC(=O)NC5CC5)cc4F)c3s2)C1 [Compound 443] | ≥ 250 nM
16 | COCCN(Cc1ccc(-c2cc3nccc(Oc4ccc(NC(=O)NC5CC5)cc4F)c3s2)nc1)C(=O)COC [Compound 85] | < 50 nM
17 | CNC(=O)N(C)C1CCN(Cc2ccc(-c3cc4nccc(Oc5ccc(NC(=O)NC6CC6)cc5F)c4s3)nc2)CC1 [Compound 410] | < 50 nM
18 | O=C(O)CC1CCN(Cc2ccc(-c3cc4nccc(Oc5ccc(NC(=O)NC6CC6)cc5F)c4s3)nc2)CC1 [Compound 63, 2-(l-((6-(7-(4-(3-cyclopropylureido)-2-fluorophenoxy)thieno[3,2-b]pyridin-2-yl)pyridin-3-yl)methyl)piperidin-4-yl)acetic acid] | < 50 nM
19 | CC(C)NC(=O)Nc1ccc(Oc2ccnc3cc(-c4ccc(CN5CCCC5=O)cc4)sc23)c(F)c1 [Compound 205, 1-(3-fluoro-4-(2-(4-((2-oxopyrrolidin-1-yl)methyl)phenyl)thieno[3,2-b]pyridin-7-yloxy)phenyl)-3-isopropylurea] | 50 to 100 nM
20 | COC(=O)CCN1CCN(C(=O)c2ccc(-c3cc4nccc(Oc5ccc(NC(=O)NC6CC6)cc5F)c4s3)nc2)CC1 [Compound 580] | < 50 nM
21 | COCCN(Cc1ccc(-c2cc3nccc(Oc4ccc(NC(=O)NC5CC5)c(F)c4F)c3s2)nc1)C(=O)CO [Compound 259-A, N-((6-(7-(4-(3-cyclopropylureido)-2,3-difluorophenoxy)thieno[3,2-d]pyridin-2-yl)pyridin-3-yl)methyl)-2-hydroxy-N-(2-methoxyethyl)acetamide] | < 50 nM
22 | CNC(=O)c1cc2nccc(Oc3ccc(NC(=O)NC4CC4)cc3F)c2s1 [Compound 444] | < 50 nM
23 | O=C(Nc1ccc(Oc2ccnc3cc(-c4ccc(CN5CCCC5=O)nc4)sc23)c(F)c1)NC1CC1 [Compound 283, 1-cyclopropyl-3-(3-fluoro-4-(2-(6-((2-oxopyrrolidin-1-yl)methyl)pyridin-3-yl)thieno[3,2-b]pyridin-7-yloxy)phenyl)urea] | < 50 nM
24 | O=C(Nc1ccc(Oc2ccnc3cc(-c4ccc(CN5CCN(Cc6ccccn6)CC5)cn4)sc23)c(F)c1)NC1CC1 [Compound 326, 1-cyclopropyl-3-(3-fluoro-4-(2-(5-((4-(pyridin-2-ylmethyl)piperazin-1-yl)methyl)pyridin-2-yl)thieno[3,2-b]pyridin-7-yloxy)phenyl)urea] | < 50 nM
25 | O=C(Nc1ccc(Oc2ccnc3cc(-c4ccc(CN5CCN(Cc6ccncc6)CC5)cn4)sc23)c(F)c1)NC1CC1 [Compound 325, 1-cyclopropyl-3-(3-fluoro-4-(2-(5-((4-(pyridin-4-ylmethyl)piperazin-1-yl)methyl)pyridin-2-yl)thieno[3,2-b]pyridin-7-yloxy)phenyl)urea] | < 50 nM

Continued, values first:

Row | IC50 | Compound
26 | < 50 nM | CCOC(=O)CC(C)N1CCN(Cc2ccc(-c3cc4nccc(Oc5ccc(NC(=O)NC6CC6)cc5F)c4s3)nc2)CC1 (stereo not shown) [Compound 515, Ethyl 3-(4-((6-(7-(4-(3-cyclopropylureido)-2-fluorophenoxy)thieno[3,2-b]pyridin-2-yl)pyridin-3-yl)methyl)piperazin-1-yl)butanoate]
27 | < 50 nM | C[C@H]1CN(Cc2ccc(-c3cc4nccc(Oc5ccc(NC(=O)NC6CC6)cc5F)c4s3)nc2)CCN1 [Compound 527]
28 | < 50 nM | O=C(Nc1ccc(Oc2ccnc3cc(-c4cn(CC(=O)N5CCN(C(=O)CO)CC5)nn4)sc23)c(F)c1)NC1CC1 [Compound 391]
29 | < 50 nM | CN(C)[C@H]1CCN(C(=O)Cn2cc(-c3cc4nccc(Oc5ccc(NC(=O)NC6CC6)cc5F)c4s3)nn2)C1 [Compound 376]
30 | < 50 nM | NC1CCN(C(=O)c2ccc(-c3cc4nccc(Oc5ccc(NC(=O)NC6CC6)cc5F)c4s3)nc2)CC1 [Compound 400]
31 | < 50 nM | CN(CCC(=O)O)C1CCN(Cc2ccc(-c3cc4nccc(Oc5ccc(NC(=O)NC6CC6)cc5F)c4s3)nc2)CC1 [Compound 424, 3-((1-((6-(7-(4-(3-Cyclopropylureido)-2-fluorophenoxy)thieno[3,2-b]pyridin-2-yl)pyridin-3-yl)methyl)piperidin-4-yl)(methyl)amino)propanoic acid]
32 | < 50 nM | CN(CCO)C(=O)C1CCCN(Cc2ccc(-c3cc4nccc(Oc5ccc(NC(=O)NC6CC6)cc5F)c4s3)nc2)C1 (stereo not shown) [Compound 494, 1-((6-(7-(4-(3-cyclopropylureido)-2-fluorophenoxy)thieno[3,2-b]pyridin-2-yl)pyridin-3-yl)methyl)-N-(2-hydroxyethyl)-N-methylpiperidine-3-carboxamide]
33 | < 50 nM | O=C(Nc1ccc(Oc2ccnc3cc(-c4ccc(CN5CCC(O)CC5)cn4)sc23)c(F)c1)NC1CC1 [Compound 599, 1-Cyclopropyl-3-(3-fluoro-4-(2-(5-((4-hydroxypiperidin-1-yl)methyl)pyridin-2-yl)thieno[3,2-b]pyridin-7-yloxy)phenyl)urea]
34 | < 50 nM | Cn1ccc(NCc2ccc(-c3cc4nccc(Oc5ccc(NC(=O)NC6CC6)cc5F)c4s3)nc2)n1 [Compound 334, 1-Cyclopropyl-3-(3-fluoro-4-(2-(5-((1-methyl-1H-pyrazol-3-ylamino)methyl)pyridin-2-yl)thieno[3,2-b]pyridin-7-yloxy)phenyl)urea]
35 | < 50 nM | CC(=O)OCC(=O)N1CCN(C(=O)Cn2cc(-c3cc4nccc(Oc5ccc(NC(=O)NC6CC6)cc5F)c4s3)nn2)CC1 [Compound 390]
36 | < 50 nM | CN1CCN(CCNC(=O)c2ccc(-c3cc4nccc(Oc5ccc(NC(=O)NC6CC6)cc5F)c4s3)nc2)CC1 [Compound 233, 6-(7-(4-(3-cyclopropylureido)-2-fluorophenoxy)thieno[3,2-b]pyridin-2-yl)-N-(2-(4-methylpiperazin-1-yl)ethyl)nicotinamide formate salt]
37 | < 50 nM | CN(CCO)C(=O)[C@@H]1CCCN1Cc1ccc(-c2cc3nccc(Oc4ccc(NC(=O)NC5CC5)cc4F)c3s2)nc1 [Compound 486, (S)-1-((6-(7-(4-(3-cyclopropylureido)-2-fluorophenoxy)thieno[3,2-b]pyridin-2-yl)pyridin-3-yl)methyl)-N-(2-hydroxyethyl)-N-methylpyrrolidine-2-carboxamide]
